Measured values as given in PubChem BioAssay (NCI).
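Compound exposure: 48 hours, 5 concentrations, 96-well plates. The concentration for 50% growth inhibition is given as GI50. TGI denotes the concentration required for complete inhibition of growth.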

Assays:
Assay in all cases: DTP human tumour cell line panel, 48 h
[1] = tested on: 786-0 renal
[2] = tested on: A498 renal
[3] = tested on: A549 NSCLC
[4] = tested on: ACHN renal
[5] = tested on: BT-549 breast
[6] = tested on: CCRF-CEM leukemia
[7] = tested on: COLO 205 colon
[8] = tested on: DU-145 prostate
[9] = tested on: EKVX NSCLC
[10] = tested on: HCC-2998 colon
[11] = tested on: HCT-116 colon
[12] = tested on: HCT-15 colon
[13] = tested on: HL-60(TB) leukemia
[14] = tested on: HOP-62 NSCLC
[15] = tested on: HOP-92 NSCLC
[16] = tested on: HS 578T breast
[17] = tested on: HT29 colon
[18] = tested on: IGROV1 ovarian
[19] = tested on: KM12 colon
[20] = tested on: LOX IMVI melanoma
[21] = tested on: M14 melanoma
[22] = tested on: MALME-3M melanoma
[23] = tested on: MCF7 breast
[24] = tested on: MDA-MB-231 breast
[25] = tested on: MDA-MB-435
[26] = tested on: MOLT-4 leukemia
[27] = tested on: NCI-H226 lung
[28] = tested on: NCI-H23 lung
[29] = tested on: NCI-H460 lung
[30] = tested on: NCI-H522 lung
[31] = tested on: NCI/ADR-RES ovarian
[32] = tested on: OVCAR-3 ovarian
[33] = tested on: OVCAR-4 ovarian
[34] = tested on: OVCAR-5 ovarian
[35] = tested on: OVCAR-8 ovarian
[36] = tested on: PC-3 prostate
[37] = tested on: RPMI-8226 leukemia
[38] = tested on: RXF 393 renal
[39] = tested on: SF-268 CNS
[40] = tested on: SF-295 CNS
[41] = tested on: SF-539 CNS
[42] = tested on: SK-MEL-2 melanoma
[43] = tested on: SK-MEL-28 melanoma
[44] = tested on: SK-MEL-5 melanoma
[45] = tested on: SK-OV-3 ovarian
[46] = tested on: SN12C renal
[47] = tested on: SNB-19 CNS
[48] = tested on: SNB-75 CNS
[49] = tested on: SR leukemia
[50] = tested on: SW-620 colon
[51] = tested on: T-47D breast
[52] = tested on: TK-10 renal
[53] = tested on: U251 CNS
[54] = tested on: UACC-257 melanoma
[55] = tested on: UACC-62 melanoma
[56] = tested on: UO-31 renal
[57] = tested on: CAKI-1 renal
[58] = tested on: K-562 leukemia

CCCCCCCCCCCCCCCCCCNCc1ccc(Cl)cc1
GI50 [1]: 8.61 µM | TGI [1]: 25.1 µM | GI50 [2]: 14 µM | TGI [2]: 31.9 µM | GI50 [3]: 2.52 µM | TGI [3]: 5.65 µM | GI50 [4]: 2.15 µM | TGI [4]: 5.54 µM | GI50 [5]: 17.3 µM | TGI [5]: 42.2 µM | GI50 [6]: 2.69 µM | TGI [6]: 8.66 µM | GI50 [7]: 1.96 µM | TGI [7]: 4 µM | GI50 [8]: 2.06 µM | TGI [8]: 4.44 µM | GI50 [9]: 3.84 µM | TGI [9]: 18.7 µM | GI50 [10]: 4.58 µM | TGI [10]: 18.9 µM | GI50 [11]: 3.03 µM | TGI [11]: 11.7 µM | GI50 [12]: 1.93 µM | TGI [12]: 4.71 µM | GI50 [13]: 1.55 µM | TGI [13]: 3.94 µM | GI50 [14]: 3.17 µM | TGI [14]: 12.8 µM | GI50 [15]: 1.83 µM | TGI [15]: 5.45 µM | GI50 [16]: 7.97 µM | TGI [16]: 30.4 µM | GI50 [17]: 1.73 µM | TGI [17]: 3.46 µM | GI50 [18]: 1.91 µM | TGI [18]: 5.24 µM | GI50 [19]: 2.5 µM | TGI [19]: 6.54 µM | GI50 [20]: 2.04 µM | TGI [20]: 4.92 µM | GI50 [21]: 2.28 µM | TGI [21]: 7.04 µM | GI50 [22]: 7.37 µM | TGI [22]: 22.6 µM | GI50 [23]: 2.93 µM | TGI [23]: 11.5 µM | GI50 [24]: 1.84 µM | TGI [24]: 4.3 µM | GI50 [25]: 3.45 µM | TGI [25]: 15.6 µM | GI50 [26]: 1.99 µM | TGI [26]: 4.55 µM | GI50 [27]: 3.7 µM | TGI [27]: 19.2 µM | GI50 [28]: 3.07 µM | TGI [28]: 12 µM | GI50 [29]: 2.05 µM | TGI [29]: 4 µM | GI50 [30]: 2.52 µM | TGI [30]: 8.73 µM | GI50 [31]: 3.58 µM | TGI [31]: 18.2 µM | GI50 [32]: 3.07 µM | TGI [32]: 11 µM | GI50 [33]: 1.99 µM | TGI [33]: 4.76 µM | GI50 [34]: 2.65 µM | TGI [34]: 12.1 µM | GI50 [35]: 4.08 µM | TGI [35]: 16.6 µM | GI50 [36]: 1.94 µM | TGI [36]: 3.96 µM | GI50 [37]: 2.24 µM | TGI [37]: 5.71 µM | GI50 [38]: 3.39 µM | TGI [38]: 15.8 µM | GI50 [39]: 3.82 µM | TGI [39]: 18.2 µM | GI50 [40]: 12.6 µM | TGI [40]: 28.8 µM | GI50 [41]: 12.1 µM | TGI [41]: 29.4 µM | GI50 [42]: 8.65 µM | TGI [42]: 25.9 µM | GI50 [43]: 13.8 µM | TGI [43]: 28.8 µM | GI50 [44]: 15.7 µM | TGI [44]: 30.3 µM | GI50 [45]: 4.02 µM | TGI [45]: 16.9 µM | GI50 [46]: 3.63 µM | TGI [46]: 13.8 µM | GI50 [47]: 3.31 µM | TGI [47]: 12 µM | GI50 [48]: 9.15 µM | TGI [48]: 27.3 µM | GI50 [49]: 2.08 µM | TGI [49]: 6.58 µM | GI50 [50]: 1.87 µM | TGI [50]: 4.03 µM | GI50 [51]: 4.28 µM | TGI [51]: 24.9 µM | GI50 [52]: 2.3 µM | TGI [52]: 9.03 µM | GI50 [53]: 1.96 µM | TGI [53]: 3.85 µM | GI50 [54]: 18.6 µM | TGI [54]: 36 µM | GI50 [55]: 4.02 µM | TGI [55]: 15.5 µM | GI50 [56]: 1.6 µM | TGI [56]: 3.45 µM

O=C(NCCc1ccccc1)Nc1ccc2cc3ccc(NC(=O)NCCc4ccccc4)cc3nc2c1
GI50 [1]: 2.07 µM | TGI [1]: 6.93 µM | GI50 [2]: 1.35 µM | TGI [2]: 8.44 µM | GI50 [3]: 3.16 µM | TGI [3]: 14.7 µM | GI50 [4]: 20.9 µM | TGI [4]: > 100 µM | GI50 [5]: 1.64 µM | TGI [5]: 3.37 µM | GI50 [57]: 4.65 µM | TGI [57]: > 100 µM | GI50 [6]: 0.301 µM | TGI [6]: 0.945 µM | GI50 [7]: 0.318 µM | TGI [7]: 1.19 µM | GI50 [8]: 1.24 µM | TGI [8]: 2.76 µM | GI50 [9]: 3.49 µM | TGI [9]: 21.8 µM | GI50 [10]: 0.447 µM | TGI [10]: 1.68 µM | GI50 [11]: 0.349 µM | TGI [11]: 1.29 µM | GI50 [12]: > 100 µM | TGI [12]: > 100 µM | GI50 [13]: 0.266 µM | TGI [13]: 0.774 µM | GI50 [14]: 1.55 µM | TGI [14]: 3.75 µM | GI50 [15]: 1.47 µM | TGI [15]: 3 µM | GI50 [16]: 0.276 µM | TGI [16]: 0.933 µM | GI50 [17]: 1.39 µM | TGI [17]: 3.56 µM | GI50 [18]: 1.44 µM | TGI [18]: 3.97 µM | GI50 [58]: 0.392 µM | TGI [58]: 35.7 µM | GI50 [19]: 1.64 µM | TGI [19]: 4.42 µM | GI50 [20]: 0.202 µM | TGI [20]: 0.445 µM | GI50 [22]: 0.59 µM | TGI [22]: 1.97 µM | GI50 [23]: 0.29 µM | TGI [23]: 1.2 µM | GI50 [24]: 1.35 µM | TGI [24]: 2.75 µM | GI50 [25]: 0.813 µM | TGI [25]: 2.13 µM | GI50 [26]: 0.258 µM | TGI [26]: 0.697 µM | GI50 [27]: 1.95 µM | TGI [27]: 5.85 µM | GI50 [28]: 0.857 µM | TGI [28]: 2.48 µM | GI50 [29]: 1.27 µM | TGI [29]: 3.57 µM | GI50 [30]: 0.326 µM | TGI [30]: 1.5 µM | GI50 [31]: > 100 µM | TGI [31]: > 100 µM | GI50 [32]: 1.04 µM | TGI [32]: 2.34 µM | GI50 [33]: 1.48 µM | TGI [33]: 3.48 µM | GI50 [34]: 2.03 µM | TGI [34]: 5.7 µM | GI50 [35]: 0.807 µM | TGI [35]: 2.7 µM | GI50 [36]: 1.63 µM | TGI [36]: 3.59 µM | GI50 [37]: 2.24 µM | TGI [37]: 6.72 µM | GI50 [38]: 1.32 µM | TGI [38]: 6.49 µM | GI50 [40]: 1.94 µM | TGI [40]: 4.79 µM | GI50 [41]: 1.33 µM | TGI [41]: 2.7 µM | GI50 [42]: 1.39 µM | TGI [42]: 3 µM | GI50 [43]: 1.43 µM | TGI [43]: 2.8 µM | GI50 [44]: 1.5 µM | TGI [44]: 3 µM | GI50 [45]: 1.51 µM | TGI [45]: 3 µM | GI50 [46]: 0.42 µM | TGI [46]: 1.6 µM | GI50 [47]: 1.4 µM | TGI [47]: 2.97 µM | GI50 [48]: 1.36 µM | TGI [48]: 3.21 µM | GI50 [49]: 0.392 µM | TGI [49]: 16 µM | GI50 [50]: 0.346 µM | TGI [50]: 1.31 µM | GI50 [51]: 0.983 µM | TGI [51]: 2.31 µM | GI50 [52]: 4.98 µM | TGI [52]: 24.8 µM | GI50 [53]: 0.746 µM | TGI [53]: 2.16 µM | GI50 [54]: 1.86 µM | TGI [54]: 4.07 µM | GI50 [55]: 1.29 µM | TGI [55]: 2.74 µM | GI50 [56]: > 100 µM | TGI [56]: > 100 µM
